Tests used:
[1] = biological target: Casein kinase II subunit alpha (Homo sapiens) (UniProt P68400); conditions: Compound concentration 1000.0 nM
[2] = biological target: MAP kinase-interacting serine/threonine-protein kinase 1 (Homo sapiens) (UniProt Q9BUB5); conditions: Compound concentration 1000.0 nM
[3] = biological target: Serine/threonine-protein kinase ULK2 (Homo sapiens) (UniProt Q8IYT8); conditions: Compound concentration 1000.0 nM
[4] = test system: Mast/stem cell growth factor receptor Kit (Homo sapiens), P10721 [L576P]; conditions: Compound concentration 1000.0 nM
[5] = biological target: Histamine H3 receptor (Homo sapiens) (UniProt Q9Y5N1); conditions: Compound concentration 10.0 uM
[6] = biological target: Platelet-derived growth factor receptor beta (Homo sapiens) (UniProt P09619); conditions: Compound concentration 1000.0 nM
[7] = biological target: Serine/threonine-protein kinase MRCK alpha (Homo sapiens) (UniProt Q5VT25); conditions: Compound concentration 1000.0 nM
[8] = biological target: Citron Rho-interacting kinase (Homo sapiens) (UniProt O14578); conditions: Compound concentration 1000.0 nM
[9] = biological target: Tyrosine-protein kinase receptor Tie-1 (Homo sapiens) (UniProt P35590); conditions: Compound concentration 1000.0 nM
[10] = test system: Receptor-type tyrosine-protein kinase FLT3 (Homo sapiens), P36888 [UNDEFINED MUTATION]; conditions: Compound concentration 1000.0 nM
[11] = biological target: Serine/threonine-protein kinase 36 (Homo sapiens) (UniProt Q9NRP7); conditions: Compound concentration 1000.0 nM
[12] = biological target: GABA-A receptor; anion channel (Rattus norvegicus) (UniProt O09028+P15431+P18506+P18508+P19969+P20236+P23574+P23576+P28471+P28473+P30191+P62813+P63079+P63138+Q91ZM7+Q9ES14); conditions: Compound concentration 10.0 uM
[13] = biological target: Mitogen-activated protein kinase 8 (Homo sapiens) (UniProt P45983); conditions: Compound concentration 1000.0 nM
[14] = biological target: Alpha-2C adrenergic receptor (Homo sapiens) (UniProt P18825); conditions: Compound concentration 10.0 uM
[15] = biological target: TGF-beta receptor type-2 (Homo sapiens) (UniProt P37173); conditions: Compound concentration 1000.0 nM
[16] = biological target: Cyclin-dependent kinase-like 1 (Homo sapiens) (UniProt Q00532); conditions: Compound concentration 1000.0 nM
[17] = biological target: Dual specificity mitogen-activated protein kinase kinase 5 (Homo sapiens) (UniProt Q13163); conditions: Compound concentration 1000.0 nM
[18] = biological target: Transient receptor potential cation channel subfamily M member 6 (Homo sapiens) (UniProt Q9BX84); conditions: Compound concentration 1000.0 nM
[19] = biological target: Bone morphogenetic protein receptor type-2 (Homo sapiens) (UniProt Q13873); conditions: Compound concentration 1000.0 nM
[20] = biological target: Casein kinase I isoform gamma-2 (Homo sapiens) (UniProt P78368); conditions: Compound concentration 1000.0 nM
[21] = biological target: Mast/stem cell growth factor receptor Kit (Homo sapiens) (UniProt P10721); conditions: Compound concentration 1000.0 nM
[22] = biological target: MAP/microtubule affinity-regulating kinase 4 (Homo sapiens) (UniProt Q96L34); conditions: Compound concentration 1000.0 nM
[23] = biological target: cGMP-dependent protein kinase 1 (Homo sapiens) (UniProt Q13976); conditions: Compound concentration 1000.0 nM
[24] = biological target: Receptor tyrosine-protein kinase erbB-2 (Homo sapiens) (UniProt P04626); conditions: Compound concentration 1000.0 nM
[25] = biological target: NUAK family SNF1-like kinase 1 (Homo sapiens) (UniProt O60285); conditions: Compound concentration 1000.0 nM
[26] = biological target: Kappa-type opioid receptor (Homo sapiens) (UniProt P41145); conditions: Compound concentration 10.0 uM
[27] = biological target: Ribosomal protein S6 kinase alpha-6 (Homo sapiens) (UniProt Q9UK32); conditions: Compound concentration 1000.0 nM
Ribosomal protein S6 kinase alpha-6 (Homo sapiens), sequence (Q9UK32 whole entry): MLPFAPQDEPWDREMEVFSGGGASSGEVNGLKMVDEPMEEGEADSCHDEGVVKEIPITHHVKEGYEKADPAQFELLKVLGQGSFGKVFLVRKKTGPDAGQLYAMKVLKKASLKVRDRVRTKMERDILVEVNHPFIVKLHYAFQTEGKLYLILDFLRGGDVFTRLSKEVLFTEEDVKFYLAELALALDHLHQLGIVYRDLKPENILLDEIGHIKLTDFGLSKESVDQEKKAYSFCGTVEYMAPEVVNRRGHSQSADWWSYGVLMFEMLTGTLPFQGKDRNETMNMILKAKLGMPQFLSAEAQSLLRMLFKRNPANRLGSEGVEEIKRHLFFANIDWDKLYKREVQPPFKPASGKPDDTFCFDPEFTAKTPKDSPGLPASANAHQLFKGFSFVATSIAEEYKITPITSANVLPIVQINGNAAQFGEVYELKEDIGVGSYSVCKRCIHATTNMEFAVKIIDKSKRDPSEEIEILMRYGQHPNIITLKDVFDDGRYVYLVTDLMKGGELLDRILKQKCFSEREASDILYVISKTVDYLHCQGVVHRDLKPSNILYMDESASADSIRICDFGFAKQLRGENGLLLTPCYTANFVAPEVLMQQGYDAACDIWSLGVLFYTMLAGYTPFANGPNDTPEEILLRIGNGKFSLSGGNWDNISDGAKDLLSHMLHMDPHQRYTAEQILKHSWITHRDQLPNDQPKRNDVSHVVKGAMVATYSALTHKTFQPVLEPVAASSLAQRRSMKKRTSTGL

[28] = biological target: Serine/threonine-protein kinase Chk1 (Homo sapiens) (UniProt O14757); conditions: Compound concentration 1000.0 nM
Serine/threonine-protein kinase Chk1 (Homo sapiens), sequence (O14757 whole entry): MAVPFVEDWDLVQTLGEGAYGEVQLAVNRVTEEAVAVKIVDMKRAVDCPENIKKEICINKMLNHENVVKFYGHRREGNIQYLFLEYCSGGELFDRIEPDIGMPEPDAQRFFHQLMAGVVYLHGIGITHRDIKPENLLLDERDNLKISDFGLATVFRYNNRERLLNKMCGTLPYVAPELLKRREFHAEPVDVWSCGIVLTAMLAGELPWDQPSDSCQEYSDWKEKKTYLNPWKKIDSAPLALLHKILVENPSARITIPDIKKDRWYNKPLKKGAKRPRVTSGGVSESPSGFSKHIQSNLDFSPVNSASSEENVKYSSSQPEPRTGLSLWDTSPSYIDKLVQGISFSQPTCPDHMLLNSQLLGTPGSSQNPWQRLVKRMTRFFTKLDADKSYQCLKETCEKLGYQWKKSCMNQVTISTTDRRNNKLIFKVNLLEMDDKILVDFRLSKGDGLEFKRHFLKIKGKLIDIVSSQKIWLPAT

[29] = biological target: Serine/threonine-protein kinase SBK1 (Homo sapiens) (UniProt Q52WX2); conditions: Compound concentration 1000.0 nM
[30] = biological target: Receptor-interacting serine/threonine-protein kinase 2 (Homo sapiens) (UniProt O43353); conditions: Compound concentration 1000.0 nM
[31] = test system: Leucine-rich repeat serine/threonine-protein kinase 2 (Homo sapiens), Q5S007 [G2019S]; conditions: Compound concentration 1000.0 nM
[32] = biological target: Serine/threonine-protein kinase N1 (Homo sapiens) (UniProt Q16512); conditions: Compound concentration 1000.0 nM
[33] = biological target: Mitogen-activated protein kinase kinase kinase 5 (Homo sapiens) (UniProt Q99683); conditions: Compound concentration 1000.0 nM
[34] = biological target: Tyrosine-protein kinase Tec (Homo sapiens) (UniProt P42680); conditions: Compound concentration 1000.0 nM
[35] = biological target: Mitogen-activated protein kinase kinase kinase kinase 2 (Homo sapiens) (UniProt Q12851); conditions: Compound concentration 1000.0 nM
Mitogen-activated protein kinase kinase kinase kinase 2 (Homo sapiens), sequence (Q12851 whole entry): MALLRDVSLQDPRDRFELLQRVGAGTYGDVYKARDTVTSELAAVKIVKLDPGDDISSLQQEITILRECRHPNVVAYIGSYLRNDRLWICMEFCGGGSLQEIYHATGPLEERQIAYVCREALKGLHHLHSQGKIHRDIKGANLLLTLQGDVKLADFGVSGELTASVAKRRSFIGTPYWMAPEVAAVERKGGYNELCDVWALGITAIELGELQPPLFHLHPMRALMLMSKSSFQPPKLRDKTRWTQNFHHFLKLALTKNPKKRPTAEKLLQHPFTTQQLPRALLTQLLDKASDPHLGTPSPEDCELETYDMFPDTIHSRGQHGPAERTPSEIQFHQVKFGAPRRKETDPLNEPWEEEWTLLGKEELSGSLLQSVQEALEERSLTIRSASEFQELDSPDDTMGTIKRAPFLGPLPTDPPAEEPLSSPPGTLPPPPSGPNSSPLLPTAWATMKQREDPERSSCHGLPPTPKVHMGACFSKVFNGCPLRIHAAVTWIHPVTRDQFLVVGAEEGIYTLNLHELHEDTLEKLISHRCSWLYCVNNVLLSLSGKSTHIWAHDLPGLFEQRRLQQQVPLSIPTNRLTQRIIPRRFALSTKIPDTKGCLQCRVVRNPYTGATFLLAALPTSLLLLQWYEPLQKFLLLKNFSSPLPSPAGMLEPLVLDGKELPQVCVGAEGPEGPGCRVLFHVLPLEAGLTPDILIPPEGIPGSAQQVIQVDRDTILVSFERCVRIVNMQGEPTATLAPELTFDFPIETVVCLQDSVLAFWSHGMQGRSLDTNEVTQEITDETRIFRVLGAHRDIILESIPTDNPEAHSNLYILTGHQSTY

[36] = biological target: Mitogen-activated protein kinase 15 (Homo sapiens) (UniProt Q8TD08); conditions: Compound concentration 1000.0 nM
[37] = test system: Phosphatidylinositol 4,5-bisphosphate 3-kinase catalytic subunit alpha isoform (Homo sapiens), P42336 [E542K]; conditions: Compound concentration 1000.0 nM
[38] = biological target: Mitogen-activated protein kinase 14 (Homo sapiens) (UniProt Q16539); conditions: Compound concentration 1000.0 nM
[39] = biological target: Serine/threonine-protein kinase TAO3 (Homo sapiens) (UniProt Q9H2K8); conditions: Compound concentration 1000.0 nM
[40] = biological target: Vascular endothelial growth factor receptor 2 (Homo sapiens) (UniProt P35968); conditions: Compound concentration 1000.0 nM
Vascular endothelial growth factor receptor 2 (Homo sapiens), sequence (P35968 whole entry): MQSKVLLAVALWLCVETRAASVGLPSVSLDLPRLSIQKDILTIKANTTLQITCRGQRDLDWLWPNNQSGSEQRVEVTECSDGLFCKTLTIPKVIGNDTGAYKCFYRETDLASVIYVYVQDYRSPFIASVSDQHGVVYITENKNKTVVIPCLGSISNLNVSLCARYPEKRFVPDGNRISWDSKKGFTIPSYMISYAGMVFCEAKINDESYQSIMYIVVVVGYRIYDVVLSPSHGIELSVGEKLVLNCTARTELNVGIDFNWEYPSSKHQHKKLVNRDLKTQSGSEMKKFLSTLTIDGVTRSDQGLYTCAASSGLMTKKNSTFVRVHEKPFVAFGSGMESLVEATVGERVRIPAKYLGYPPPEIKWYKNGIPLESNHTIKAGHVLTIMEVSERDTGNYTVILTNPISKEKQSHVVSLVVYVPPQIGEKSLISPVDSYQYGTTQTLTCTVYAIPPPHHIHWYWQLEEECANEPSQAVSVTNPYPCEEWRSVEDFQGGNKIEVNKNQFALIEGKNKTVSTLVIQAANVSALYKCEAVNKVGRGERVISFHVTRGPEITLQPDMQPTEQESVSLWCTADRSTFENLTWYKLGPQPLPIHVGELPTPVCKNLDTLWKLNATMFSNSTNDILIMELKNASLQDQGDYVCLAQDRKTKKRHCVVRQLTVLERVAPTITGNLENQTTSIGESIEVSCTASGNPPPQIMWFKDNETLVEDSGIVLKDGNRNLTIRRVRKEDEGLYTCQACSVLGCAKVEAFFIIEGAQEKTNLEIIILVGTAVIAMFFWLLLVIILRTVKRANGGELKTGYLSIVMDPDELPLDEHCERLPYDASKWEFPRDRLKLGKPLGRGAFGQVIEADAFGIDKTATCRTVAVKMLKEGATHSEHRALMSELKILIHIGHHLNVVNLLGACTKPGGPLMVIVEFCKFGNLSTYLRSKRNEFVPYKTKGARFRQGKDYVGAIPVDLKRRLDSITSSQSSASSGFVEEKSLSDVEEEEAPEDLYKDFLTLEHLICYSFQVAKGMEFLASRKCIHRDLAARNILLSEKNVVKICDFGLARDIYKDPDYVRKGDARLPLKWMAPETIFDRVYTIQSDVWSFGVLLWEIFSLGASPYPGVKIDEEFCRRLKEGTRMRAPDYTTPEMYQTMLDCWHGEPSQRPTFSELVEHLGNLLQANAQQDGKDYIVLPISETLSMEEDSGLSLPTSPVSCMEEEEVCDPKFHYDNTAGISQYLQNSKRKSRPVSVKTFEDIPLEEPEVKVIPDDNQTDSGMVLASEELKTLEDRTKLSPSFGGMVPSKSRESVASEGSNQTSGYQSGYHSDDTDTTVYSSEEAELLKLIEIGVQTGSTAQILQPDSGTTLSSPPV

[41] = biological target: Serine/threonine-protein kinase 38 (Homo sapiens) (UniProt Q15208); conditions: Compound concentration 1000.0 nM
[42] = biological target: Serine/threonine-protein kinase BRSK2 (Homo sapiens) (UniProt Q8IWQ3); conditions: Compound concentration 1000.0 nM
[43] = biological target: Activin receptor type-1-like (Homo sapiens) (UniProt P37023); conditions: Compound concentration 1000.0 nM

Serine/threonine-protein kinase ULK2 (Homo sapiens), sequence (Q8IYT8 whole entry): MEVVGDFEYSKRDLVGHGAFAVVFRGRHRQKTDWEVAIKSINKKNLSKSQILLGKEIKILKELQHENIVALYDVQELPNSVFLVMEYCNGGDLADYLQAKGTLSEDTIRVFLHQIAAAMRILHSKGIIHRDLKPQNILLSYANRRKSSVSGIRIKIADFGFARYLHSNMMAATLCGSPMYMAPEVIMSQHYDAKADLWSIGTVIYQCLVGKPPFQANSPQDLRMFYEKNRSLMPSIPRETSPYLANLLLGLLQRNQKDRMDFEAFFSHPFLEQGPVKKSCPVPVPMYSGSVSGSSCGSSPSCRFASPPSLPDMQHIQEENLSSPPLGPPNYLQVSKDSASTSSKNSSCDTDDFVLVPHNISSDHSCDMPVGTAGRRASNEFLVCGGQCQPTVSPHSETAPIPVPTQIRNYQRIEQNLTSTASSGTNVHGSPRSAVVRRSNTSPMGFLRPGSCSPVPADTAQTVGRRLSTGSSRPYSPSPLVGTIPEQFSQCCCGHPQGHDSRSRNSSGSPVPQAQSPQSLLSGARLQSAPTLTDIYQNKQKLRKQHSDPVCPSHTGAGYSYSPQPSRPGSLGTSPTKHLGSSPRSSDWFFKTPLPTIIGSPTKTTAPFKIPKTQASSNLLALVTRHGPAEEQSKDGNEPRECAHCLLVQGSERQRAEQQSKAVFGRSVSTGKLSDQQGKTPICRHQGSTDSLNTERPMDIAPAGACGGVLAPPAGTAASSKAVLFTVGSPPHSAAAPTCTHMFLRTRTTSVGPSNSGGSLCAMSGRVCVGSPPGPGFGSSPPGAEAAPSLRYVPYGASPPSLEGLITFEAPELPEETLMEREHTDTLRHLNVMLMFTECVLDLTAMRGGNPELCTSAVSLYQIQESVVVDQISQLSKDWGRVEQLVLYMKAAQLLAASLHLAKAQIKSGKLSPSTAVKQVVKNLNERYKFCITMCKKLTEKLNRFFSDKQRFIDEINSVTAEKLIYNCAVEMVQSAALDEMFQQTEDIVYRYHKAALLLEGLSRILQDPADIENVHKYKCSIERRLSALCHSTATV
Casein kinase II subunit alpha (Homo sapiens), sequence (P68400 whole entry, looked up): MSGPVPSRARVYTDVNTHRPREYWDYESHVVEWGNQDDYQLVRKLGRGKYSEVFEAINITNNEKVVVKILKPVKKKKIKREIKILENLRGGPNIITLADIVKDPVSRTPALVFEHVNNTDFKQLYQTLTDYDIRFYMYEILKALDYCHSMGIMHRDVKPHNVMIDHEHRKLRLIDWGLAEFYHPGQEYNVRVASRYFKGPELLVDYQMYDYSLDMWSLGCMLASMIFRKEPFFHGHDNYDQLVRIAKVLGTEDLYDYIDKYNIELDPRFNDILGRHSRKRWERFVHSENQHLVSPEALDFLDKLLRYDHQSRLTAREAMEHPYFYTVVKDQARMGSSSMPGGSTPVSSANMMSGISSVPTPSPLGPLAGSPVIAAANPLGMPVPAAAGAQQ

COc1cc(-c2cn([C@H]3CCc4c(F)cccc4N(CC(F)(F)F)C3=O)nn2)ccc1-n1cnc(C)c1
inactive: residual activity [1] 100% | residual activity [2] 87% | residual activity [3] 100% | residual activity [4] 100% | inhibition [5] 23.3% | residual activity [6] 100% | residual activity [7] 100% | residual activity [8] 100% | residual activity [9] 100% | residual activity [10] 82% | residual activity [11] 100% | inhibition [12] 28.6% | residual activity [13] 52% | inhibition [14] 38.3% | residual activity [15] 100% | residual activity [16] 100% | residual activity [17] 58% | residual activity [18] 100% | residual activity [19] 100% | residual activity [20] 100% | residual activity [21] 100% | residual activity [22] 100% | residual activity [23] 100% | residual activity [24] 100% | residual activity [25] 100% | inhibition [26] 7.19% | residual activity [27] 82% | residual activity [28] 100% | residual activity [29] 94% | residual activity [30] 100% | residual activity [31] 100% | residual activity [32] 96% | residual activity [33] 100% | residual activity [34] 100% | residual activity [35] 100% | residual activity [36] 78% | residual activity [37] 88% | residual activity [38] 100% | residual activity [39] 100% | residual activity [40] 100% | residual activity [41] 89% | residual activity [42] 100% | residual activity [43] 100%

COc1cc(-c2cn([C@H]3CCc4ccccc4N(CC(F)(F)F)C3=O)nn2)ccc1-n1ccc(C)n1
inactive: residual activity [1] 81% | residual activity [2] 78% | residual activity [3] 88% | residual activity [4] 62% | inhibition [5] 20.9% | residual activity [6] 100% | residual activity [7] 100% | residual activity [8] 100% | residual activity [9] 100% | residual activity [10] 80% | residual activity [11] 79% | inhibition [12] 0.92% | residual activity [13] 55% | inhibition [14] 9.04% | residual activity [15] 100% | residual activity [16] 97% | residual activity [17] 74% | residual activity [18] 100% | residual activity [19] 100% | residual activity [20] 100% | residual activity [21] 100% | residual activity [22] 100% | residual activity [23] 100% | residual activity [24] 100% | residual activity [25] 92% | inhibition [26] 13.6% | residual activity [27] 81% | residual activity [28] 100% | residual activity [29] 94% | residual activity [30] 93% | residual activity [31] 100% | residual activity [32] 100% | residual activity [33] 100% | residual activity [34] 100% | residual activity [35] 80% | residual activity [36] 100% | residual activity [37] 82% | residual activity [38] 94% | residual activity [39] 72% | residual activity [40] 79% | residual activity [41] 100% | residual activity [42] 97% | residual activity [43] 100%

Reference: ChEMBL document CHEMBL4507289, “Data for DCP probe GSM1” (2021)
